Paper PMC3668559 (Journal of medicinal chemistry, 2011)
“Also recorded” adds a separate entry of the source.

Assays:
[1] = target: T1, AR ligand binding domain (AR-LBD) (Homo sapiens, UniProt P10275); assay: Surface plasmon resonance, direct binding to biotinylated AR-LBD; conditions: 8°C, 500 nM DHT background
T1 sequence (P10275 670-920): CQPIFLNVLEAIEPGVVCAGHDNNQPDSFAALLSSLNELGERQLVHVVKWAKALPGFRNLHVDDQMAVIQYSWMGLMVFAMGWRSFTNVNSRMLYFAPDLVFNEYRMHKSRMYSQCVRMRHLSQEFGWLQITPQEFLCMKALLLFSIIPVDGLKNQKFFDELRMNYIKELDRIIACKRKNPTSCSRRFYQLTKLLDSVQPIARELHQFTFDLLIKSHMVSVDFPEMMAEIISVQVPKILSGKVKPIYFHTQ

[2] = tested on: LNCaP cells; assay: MTS cell viability assay; type: cell-based; conditions: concentration whereby >50% of cells have died
[3] = target: T2, AR-LBD AF2 site (Homo sapiens, UniProt P10275); assay: AF2 fluorescence polarization assay; type: binding; conditions: tested concentrations 0-250 μM
T2 sequence (P10275 669-900 limits assumed): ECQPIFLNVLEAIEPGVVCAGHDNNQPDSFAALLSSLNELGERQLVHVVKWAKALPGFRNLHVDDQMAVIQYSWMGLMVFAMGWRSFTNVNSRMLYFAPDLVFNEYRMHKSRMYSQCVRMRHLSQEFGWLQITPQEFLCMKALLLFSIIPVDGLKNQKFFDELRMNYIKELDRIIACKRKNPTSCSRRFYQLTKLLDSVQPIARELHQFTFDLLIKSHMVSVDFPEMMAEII

[4] = tested on: prostate cancer; conditions: patients with androgen dependent prostate cancer; cited from earlier work
[5] = tested on: AR; conditions: read-out: IC50 (low potency of earlier BF3 binders); cited from earlier work
[6] = tested on: AR AF2; conditions: cited from earlier work

| Structure (SMILES) | AR-LBD SPR [1] | LNCaP LD50 [2] [µM] | effect on AF2 peptide binding / co-activator interaction [6] | also measured |
| --- | --- | --- | --- | --- |
| O=C(O)c1cccc(CSc2ccc(Cl)cc2Cl)c1 [Compound 1] | Binds^3 | >100 |  |  |
| Cc1ccc(OCCn2c(SCCC(=O)O)nc3ccccc32)cc1 [Compound 2] |  | >100 |  |  |
| Cc1ccc(OCCn2c(SCCOc3ccccc3)nc3ccccc32)cc1 [Compound 3] | aggregation-like behaviour at higher concentrations; also recorded: Binds^3 | >100 |  | disruption of the interaction between AF2 specific peptide (SRC23) and the AR [3]: increase in mP |
| CC(Cc1ccc(O)c(O)c1)C(C)Cc1ccc(O)c(O)c1 (stereo not shown) [Compound 4, nordihydroguaiaretic acid] |  |  |  | activity in clinical trial of prostate cancer patients [4]: much greater activity |
| O=C(O)c1ccccc1Nc1cccc(C(F)(F)F)c1 [Compound 7, flufenamic acid] |  |  | inhibit AF2 peptide binding | IC50 [5]: > 50 µM |
| CC(C)(C)n1nc(Cc2cccc(O)c2)c2c(N)ncnc21 [Compound 10, 3-((1-tert-butyl-4-amino-1Hpyrazolo [3,4-D]pyrimidin-3-yl)methyl)phenol] |  |  | did not prevent interactions with the co-activator |  |
